# Test results taken from patent US20220170940A1, “BIOMARKER WITH THERAPEUTIC IMPLICATIONS FOR PERITONEAL CARCINOMATOSIS” (SINGAPORE HEALTH SERVICES PTE LTD, priority 2019, published 2022).
# Experiments:
# [1] = tested on: Colo-205 cells; assay: In vitro drug treatment, CellTitreGlo proliferation of cell-free ascites-treated cells; assay type: cell-based, Human; conditions: 5% cell-free ascites of PPA, CAP, APA groups or FBS control, 72 hours
# Experimental: A total of 5,000 cells/wells were seeded in 96-well plates and were grown for 24 hours in serum-free RPMI medium supplemented with 5% cell-free ascites or complete media, and then treated with various concentrations of TM5441 (PAI-1 inhibitor), Tiplaxtinin (PAI-1 inhibitor), Napabucasin (STAT3 inhibitor), BEZ235 (dual PI3K/mTOR inhibitor) and Mitomycin C (chemotherapeutic agent used in hyperthermic intraperitoneal chemotherapy (HIPEC)) for 72 hours. Cell proliferation was assessed using CellTitreGlo assay (Promega, Madison, US). These experiments were performed in triplicates and were repeated at least 3 times.
# [2] = tested on: phospho-STAT3 (Tyr705); assay: p-STAT3 (Y705) ELISA of cell-free ascites-treated cancer cells with TM5441; assay type: cell-based, Human; conditions: cells exposed to PPA cell-free ascites (PC085, PC383) versus CAP (PC249) and APA (PC010)
# Experimental: Concentrations of PAI-1 (DSE100), IL6 (D6050), IL10 (D1000B), CCL2 (DCP00), MMP9 (DMP900), ANGPT1 (DANG10), TGFB1 (DB100B), and CXCL10 (DIP100) in cell-free ascites were quantified using human Quantikine ELISA kits from R&D Systems. Concentrations of POSTN (DY3548B) and CD44 (DY7045-05) in cell-free ascites were quantified using human DuoSet ELISA kits from R&D Systems. VSIG4 (ELH-VSIG4-1) concentration in cell-free ascites was quantified using ELISA from RayBiotech. All samples were performed with 2 technical replicates according to the manufacturers' instructions. Total STAT3 and phospho-STAT3 (Tyr705) were detected with ELISA (7305C and 7300C, Cell Signalling Technology, Massachusetts, US). Proteins were isolated from cell lysates of Colo-205 and SNU-C1 that were treated with 5% cell-free ascites for 24 hours. In all experiments, 25 μg of protein was used for total STAT3 and p-STAT3(Y705) ELISA following the manufacturer's instructions.
# [3] = tested on: IL6-JAK-STAT3 signalling pathway; assay: Gene expression profiling (RNA microarray, GSEA) upon PAI-1 inhibition; assay type: cell-based, Human; conditions: Colo-205 cells, PPA cell-free ascites (PC085), 27.25 μM TM5441 vs DMSO, 24 hours
# Experimental: To assess signalling pathways affected by PAI-1 inhibition, Colo-205 cells were treated with cell-free ascites representative of PAI-1 paracrine addicted (PPA) group, co-activators predominant (CAP) group or foetal bovine serum (FBS; control) in the presence of DMSO vehicle or 27.25 μM TM5441 for 24 hours. Total RNA was isolated using Qiagen Mini Kit (Qiagen, CA, USA), following the manufacturer's instructions. Gene expression profiling was performed using Affymetrix GeneChip Genome U133 Plus 2.0 microarray platform (Affymetrix, Santa Clara, Calif.) in accordance to manufacturer's protocols. Microarray data was uploaded into the free programming software R (R Foundation for Statistical Computing, Vienna, Austria) for processing and normalization. Gene Set Enrichment Analysis (GSEA) was used to assess enrichment of genes showing up- and down-regulation using GSEA graphical user interface (GUI) software (http://www.broadinstitute.org/gsea/).
# [4] = tested on: Colo-205 cells; assay: In vivo PC cell line mouse model drug treatment (ascites groups); set-up: species or system BALB/c nude mice; conditions: PPA cell-free ascites (PC085)-treated mice; 1.75 mM TM5441 i.p. every 3 days for 21 days; n=5 mice/group
# Experimental: To determine the efficacy of PAI-1 inhibition in different susceptibility ascites groups in vivo, 5×10^6 of Colo-205 cells were co-injected with cell-free ascites representative of PAI-1 paracrine addicted (PPA) group, co-activators predominant (CAP) group or foetal bovine serum (FBS) into abdominal cavity of 6- to 8-week-old BALB/c nude mice (female, n=5 mice/group) and treated with 1.75 mM TM5441 administered intraperitoneally. Ascites and drug treatment were performed by injecting 400 μL of 5% cell-free ascites or 10% foetal bovine serum (FBS) with TM5441 intraperitoneally every 3 days for a duration of 21 days. After 3 weeks, the mice were sacrificed and tumour burden was quantified based on a modified peritoneal carcinomatosis index (PCI) score and presented as total peritoneal carcinomatosis index (PCI) score. Total peritoneal carcinomatosis index (PCI) score was calculated based on the sum of score for each region and ranges from 0 to 39.
# [5] = tested on: Colo-205 cells; assay: In vivo PC cell line mouse model, drug concentration and delivery method (i.p. vs oral); set-up: species or system BALB/c nude mice; conditions: PPA cell-free ascites (PC085); i.p. every 3 days up to 21 days; n=4 mice/group
# Experimental: To determine the optimal drug concentration and drug delivery method, a total of 16 female BALB/c nude mice with the age of 6-8 weeks old were selected for the experiment. Each mouse was injected with 5×10^6 of Colo-205 cells intraperitoneally. The mice were divided into 4 groups and given the following treatments: (i) 5% cell-free ascites with 1% DMSO, (ii) 5% cell-free ascites with 1 mM TM5441, (iii and iv) 5% cell-free ascites with 2 mM TM5441. Treatment was performed by injecting 400 μL of 5% cell-free ascites with DMSO vehicle/drug intraperitoneally (i-iii) and orally (iv) every 3 days, up to 21 days. After 3 weeks, the mice were sacrificed and tumour burden was quantified based on a modified peritoneal carcinomatosis index (PCI) score and presented as total peritoneal carcinomatosis index (PCI) score. Total peritoneal carcinomatosis index (PCI) score was calculated based on the sum of score for each region and ranges from 0 to 39.
# [6] = tested on: patient-derived ascites-dependent xenograft (PDADX) tumours; assay: Patient-derived ascites-dependent xenografts (PDADXs) drug treatment; assay type: in vivo, BALB/c nude mice; conditions: 2 mM TM5441 i.p. every 3 days for 21 days
# Experimental: Ascites collected from patients with peritoneal carcinomatosis were centrifuged at 2000 g for 10 minutes to concentrate the cellular components and to separate the fluid component. 1 mL of cell pellet was resuspended with 1 mL of ascitic fluid and 400 μL of the mixture was implanted intraperitoneally into 6-week-old BALB/c nude mice (n=5 mice) to generate patient-derived ascites-dependent xenograft (PDADX) passage 0 (P0). For subsequent passages, patient-derived ascites-dependent xenograft (PDADX) tumours were diced into small pieces using scalpel blades and passed through an 18-G syringe needle. Diced tumours were resuspended with matched patient's ascites at 1:1 ratio and implanted intraperitoneally into 6-week-old BALB/c nude mice (n=10 mice).
# Matched patient's cell-free ascites and its cellular components were used to generate patient-derived ascites-dependent xenografts (PDADXs) to better recapitulate peritoneal carcinomatosis patients. PAI-1 paracrine addicted (PPA) patient-derived ascites-dependent xenograft (PDADX) tumours (100 mg) were implanted into 16 female BALB/c nude mice intraperitoneally and co-activators predominant (CAP) patient-derived ascites-dependent xenograft (PDADX) tumours (100 mg) were implanted into 16 female BALB/c nude mice intraperitoneally. […] Tumour burden was quantified by weighing all visible tumours after mice were sacrificed.
# Briefly, co-activators predominant (CAP) patient-derived ascites-dependent xenograft (PDADX) tumours (100 mg) were implanted into 16 female BALB/c nude mice intraperitoneally. […] Tumour burden was quantified by weighing all visible tumours after mice were sacrificed.
smiles,measurement,setting,value
Cn1c(=O)n(-c2ccc(C(C)(C)C#N)cc2)c2c3cc(-c4cnc5ccccc5c4)ccc3ncc21 [BEZ235],"Sensitivity of cell-free ascites-treated Colo-205 cells to inhibitor (dose-response, cell proliferation)",[1],ineffective
CO[C@@]12[C@H](COC(N)=O)C3=C(C(=O)C(C)=C(N)C3=O)N1C[C@@H]1N[C@@H]12 [Mitomycin C],"Sensitivity of cell-free ascites-treated Colo-205 cells to inhibitor (dose-response, cell proliferation)",[1],ineffective
CC(=O)c1cc2c(o1)C(=O)c1ccccc1C2=O [Napabucasin],"Sensitivity of cell-free ascites-treated Colo-205 cells to inhibitor (dose-response, cell proliferation)",[1],ineffective
"O=C(COCC(=O)Nc1ccc(Cl)cc1C(=O)[O-])Nc1cccc(-c2ccoc2)c1.[Na+] [TM5441, 5-Chloro-2-[[2-[2-[[3-(3-furanyl)phenyl]amino]-2-oxoethoxy]acetyl]amino]benzoic acid sodium salt]","Sensitivity of cell-free ascites-treated Colo-205 cells to inhibitor (dose-response, cell proliferation)",[1],"PAI-1 paracrine addicted (PPA) (n=18) being the most sensitive to PAI-1 inhibition, followed by co-activators predominant (CAP) (n=59) and alternative pathways activation (APA) (n=17)"
same,Concentration needed to suppress STAT3 activation (p-STAT3 ELISA),[2],required a lower concentration of TM5441 to supress STAT3 activation
same,IL6-JAK-STAT3 signalling pathway regulation (GSEA),[3],significantly down-regulated
same,Tumour burden (modified PCI score),[4],significant reduction in tumour burden
same,"Formation of peritoneal tumours (modified PCI score), intraperitoneal instillation",[5],effectively inhibited
same,"Tumour burden (weight of all visible tumours), PC249 PDADX with PPA cell-free ascites (PC383)",[6]; CAP PDADX (PC249) exposed to PC383 PPA ascites,became susceptible to PAI-1 inhibition
same,"Tumour burden (weight of all visible tumours), PC249 PDADX with matched cell-free ascites","[6]; CAP PDADX (PC249), matched CAP ascites",no reduction in tumour burden compared to vehicle control
same,"Tumour burden (weight of all visible tumours), PC383 PDADX with matched cell-free ascites","[6]; PPA PDADX (PC383), matched PPA ascites, n=4 mice/group",significantly superior inhibition of tumour growth compared to vehicle control
"O=C(O)C(=O)c1cn(Cc2ccccc2)c2ccc(-c3ccc(OC(F)(F)F)cc3)cc12 [Tiplaxtinin, 2-(1-Benzyl-5-(4-(trifluoromethoxy)phenyl)-1H-indol-3-yl)oxoacetic acid]","Sensitivity of cell-free ascites-treated Colo-205 cells to inhibitor (dose-response, cell proliferation)",[1],showed the same trend of differential response
